Laboratory results: ChEMBL document CHEMBL1136236, “Design and parallel synthesis of piperidine libraries targeting the nociceptin (N/OFQ) receptor” (Bioorg Med Chem Lett, 2003)
Activity calls are given as the source filed them. The calls are words filed in the database; no cut-off is given here.

Assays:
Nociceptin receptor [1] = biological target: T1, Nociceptin receptor (Homo sapiens, UniProt P41146); assay: Inhibitory activity against human orphanin FQ receptor expressed in recombinant HEK 293 cells; format: cell-based; parameters: concentration or dose not given beside the values; details: HEK293; concentration not given here
Nociceptin receptor [2] = biological target: T1, Nociceptin receptor; assay: Binding affinity against human orphanin FQ receptor expressed in recombinant HEK 293 cells; format: cell-based, HEK293
Mu-type opioid receptor [3] = biological target: T2, Mu-type opioid receptor (Homo sapiens, UniProt P35372); assay: Selectivity ratio of Opioid receptor mu 1 binding to Orphanin FQ receptor
[4] = biological target: T3, Kappa-type opioid receptor (Homo sapiens, UniProt P41145); assay: Antagonistic activity against opioid receptor kappa 1; not active; format: functional
Mu-type opioid receptor [5] = biological target: T2, Mu-type opioid receptor; assay: Antagonistic activity against opioid receptor mu1; format: functional
[6] = biological target: T4, Delta-type opioid receptor (Homo sapiens, UniProt P41143); assay: Antagonistic activity against Opioid receptor delta 1; format: functional
Nociceptin receptor [7] = biological target: T1, Nociceptin receptor; assay: Antagonistic activity against orphan FQ receptor; format: functional
Nociceptin receptor [8] = biological target: T1, Nociceptin receptor; assay: Inhibitory activity against human orphanin FQ receptor expressed in recombinant HEK 293 cells; in active; format: cell-based; details: HEK293
Nociceptin receptor [9] = biological target: T1, Nociceptin receptor; assay: Inhibitory activity against human orphanin FQ receptor expressed in recombinant HEK 293 cells; inactive; format: cell-based; details: HEK293
[10] = biological target: T3, Kappa-type opioid receptor; assay: Antagonistic activity against opioid receptor kappa 1; format: functional
[11] = biological target: T4, Delta-type opioid receptor; assay: Antagonistic activity against Opioid receptor delta 1; not active; format: functional

T3 sequence (P41145 whole entry): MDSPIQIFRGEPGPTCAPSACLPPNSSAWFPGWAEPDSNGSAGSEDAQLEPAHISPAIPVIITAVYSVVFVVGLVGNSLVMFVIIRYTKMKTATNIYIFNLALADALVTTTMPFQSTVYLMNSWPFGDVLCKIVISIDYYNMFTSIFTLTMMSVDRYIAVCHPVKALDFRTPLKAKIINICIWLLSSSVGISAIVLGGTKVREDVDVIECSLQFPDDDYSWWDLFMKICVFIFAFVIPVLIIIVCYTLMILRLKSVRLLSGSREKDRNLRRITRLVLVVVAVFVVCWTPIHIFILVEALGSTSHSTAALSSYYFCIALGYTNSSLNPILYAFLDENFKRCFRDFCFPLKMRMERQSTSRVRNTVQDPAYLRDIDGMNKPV
T4 sequence (P41143 whole entry): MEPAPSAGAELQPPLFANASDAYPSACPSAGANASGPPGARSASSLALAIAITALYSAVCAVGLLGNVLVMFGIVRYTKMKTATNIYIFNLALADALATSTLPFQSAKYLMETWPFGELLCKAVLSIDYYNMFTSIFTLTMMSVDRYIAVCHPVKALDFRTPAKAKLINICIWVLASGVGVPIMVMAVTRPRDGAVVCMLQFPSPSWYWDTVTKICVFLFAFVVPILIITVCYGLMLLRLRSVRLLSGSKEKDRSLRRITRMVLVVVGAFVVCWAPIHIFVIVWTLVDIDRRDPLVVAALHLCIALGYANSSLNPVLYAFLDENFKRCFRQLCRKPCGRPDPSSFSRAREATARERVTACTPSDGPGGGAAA
T1 sequence (P41146 whole entry): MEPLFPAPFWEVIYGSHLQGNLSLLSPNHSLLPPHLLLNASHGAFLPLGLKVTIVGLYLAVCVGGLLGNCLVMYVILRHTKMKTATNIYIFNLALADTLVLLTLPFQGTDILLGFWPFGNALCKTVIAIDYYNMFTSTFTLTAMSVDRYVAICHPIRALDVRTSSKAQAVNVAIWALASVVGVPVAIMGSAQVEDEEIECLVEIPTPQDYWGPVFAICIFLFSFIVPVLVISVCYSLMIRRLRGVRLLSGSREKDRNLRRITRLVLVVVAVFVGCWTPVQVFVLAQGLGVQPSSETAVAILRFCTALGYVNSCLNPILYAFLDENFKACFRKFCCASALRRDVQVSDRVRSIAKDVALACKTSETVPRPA
T2 sequence (P35372 whole entry): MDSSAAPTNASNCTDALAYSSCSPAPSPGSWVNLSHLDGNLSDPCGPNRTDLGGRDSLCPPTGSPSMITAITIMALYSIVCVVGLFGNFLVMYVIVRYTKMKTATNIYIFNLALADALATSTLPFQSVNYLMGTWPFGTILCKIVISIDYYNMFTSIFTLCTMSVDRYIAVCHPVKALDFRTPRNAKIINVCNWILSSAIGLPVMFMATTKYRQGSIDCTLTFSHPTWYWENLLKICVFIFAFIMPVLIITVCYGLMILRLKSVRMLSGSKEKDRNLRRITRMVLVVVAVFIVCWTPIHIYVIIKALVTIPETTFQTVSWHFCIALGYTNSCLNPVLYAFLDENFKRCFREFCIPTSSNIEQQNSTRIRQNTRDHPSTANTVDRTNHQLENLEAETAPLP

SMILES	inhibition (Nociceptin receptor [1]) [%]	Ki (Nociceptin receptor [2]) [nM]	Selectivity ratio (Mu-type opioid receptor [3])	Ki (Mu-type opioid receptor [5]) [nM]	Ki (Nociceptin receptor [7]) [nM]	also measured
OC1(c2cccc(C(F)(F)F)c2)CCN(Cc2ccc3ccccc3c2)CC1	85	715				
O=C(COCc1ccccc1)N1CCC(O)(c2ccc(Br)cc2)CC1	50	> 10000				
OC1(c2cccc(C(F)(F)F)c2)CCN(C2CCC3CCCCC3C2)CC1 (configuration not stated)			1.75	21	12	Ki [4]: Not Active; Ki [6]: 10000 nM
N#CC1(c2ccccc2)CCN(Cc2ccc(Cl)c(Cl)c2)CC1	65	1270				
N#Cc1ccc(CN2CCC(O)(c3ccc(Cl)c(C(F)(F)F)c3)CC2)cc1		> 10000				inhibition (Nociceptin receptor [8]): inactive
O=[N+]([O-])c1ccc(CN2CCC(O)(c3ccc(Cl)c(C(F)(F)F)c3)CC2)o1		> 10000				inhibition (Nociceptin receptor [9]): inactive
OC1(c2ccc(Cl)c(C(F)(F)F)c2)CCN(C2Cc3ccccc3C2)CC1			0.23	19	82	Ki [4]: Not Active; Ki [6]: 10000 nM
CCCC1CCC(N2CCC(O)(c3cccc(C(F)(F)F)c3)CC2)CC1 (configuration not stated)			0.34	46	135	Ki [10]: 6000 nM; Ki [11]: Not Active
OC1(c2ccc(Cl)cc2)CCN(CC2CCCCCCC2)CC1			1.25	626	502	Ki [4]: Not Active; Ki [11]: Not Active
OC1(c2ccc(Cl)cc2)CCN(Cc2ccc(C(F)(F)F)cc2)CC1	85	307				
OC1(c2cccc(C(F)(F)F)c2)CCN(Cc2ccc(F)cc2)CC1	80	692				
OC1(c2cccc(C(F)(F)F)c2)CCN(Cc2ccc(C(F)(F)F)cc2)CC1		6520				
N#CC1(c2ccccc2)CCN(Cc2cccc3ccccc23)CC1	55	827				
OC1(c2ccc(Cl)cc2)CCN(Cc2ccc3ccccc3c2)CC1	90	153				
OC1(c2ccc(Cl)c(C(F)(F)F)c2)CCN(Cc2ccc(C(F)(F)F)cc2)CC1	55	1190				
OC1(c2cccc(C(F)(F)F)c2)CCN(CC2CCCCCCC2)CC1			1.11	113	102	Ki [10]: 4240 nM; Ki [11]: Not Active
N#CC1(c2ccccc2)CCN(Cc2ccc3ccccc3c2)CC1	70	1110				
N#CC1(c2ccccc2)CCN(Cc2ccc(F)cc2)CC1	55	> 10000				
OC1(c2ccc(Cl)c(C(F)(F)F)c2)CCN(Cc2ccc(F)cc2)CC1	90	234				
OC1(c2ccc(Cl)c(C(F)(F)F)c2)CCN(Cc2ccc3ccccc3c2)CC1	70	879				
OC1(c2ccc(Cl)c(C(F)(F)F)c2)CCN(CC2CCCCCCC2)CC1			2.64	124	47	Ki [10]: 1650 nM; Ki [6]: 8780 nM
CC(C)C1CCC(N2CCC(O)(c3ccc(Cl)c(C(F)(F)F)c3)CC2)CC1 (configuration not stated)			0.24	8	33	Ki [4]: Not Active; Ki [6]: 10000 nM
OC1(c2cccc(C(F)(F)F)c2)CCN(CCC(c2ccccc2)c2ccccc2)CC1			0.01	1	116	Ki [4]: Not Active; Ki [6]: 9390 nM
Cc1ccc2ccccc2c1CN1CCC(C#N)(c2ccccc2)CC1		> 10000				inhibition (Nociceptin receptor [9]): inactive
OC1(c2ccc(Cl)c(C(F)(F)F)c2)CCN(CCC(c2ccccc2)c2ccccc2)CC1			0.02	4	225	Ki [4]: Not Active; Ki [11]: Not Active
CC(C)C1CCC(N2CCC(O)(c3cccc(C(F)(F)F)c3)CC2)CC1 (configuration not stated)						Ki [10]: 4150 nM
